Experimental data taken from patent US20230203095A1, “BIOLOGICAL PEPTIDE FOR TREATING LUNG DISEASES AND APPLICATION THEREOF” (SHANGHAI INSTITUTE OF PHARMACEUTICAL INDUSTRY CO., LTD., priority 2019, published 2023).
Where “and” joins values, the source holds several entries; their conditions need not be identical. Identical values can stand only once. Like-named read-outs stand apart in the source and are kept apart here. Peptide text beside a SMILES is read from it. * marks the point of attachment. X1 = CC(=O)N[C@H]1C(*)O[C@H](CO)[C@@H](O)[C@@H]1O

Tests used:
COPD model rats = experiment: Lung function (200 ms pulmonary ventilation) in smoking + LPS COPD model rats; type: in vivo, SD rats; details: 5 mg/kg body weight/day, aerosol, once a day for 4 weeks
[1] = Stability of each 7-peptide compound in rat whole blood; type: in vitro ADME; details: for stability in whole blood: compared with SP peptide; for recovery: rat whole blood, 37° C., 1000 ng/mL, read-out: Recovery rate (%) M±SD
Method: Preparation of the test product: SP and SIPI-D00 were dissolved and diluted with an appropriate amount of 50% acetonitrile water containing 0.1% formic acid to obtain a working solution with a concentration of 200 µg/mL.
• 1) Fresh rat whole blood was added to the EP tube, and shaken gently to mix well; • 2) The EP tube was pre-incubated in a 37° C. water bath for 5 minutes; • 3) Each compound was added to start the reaction and continued to incubate at 37° C.; • 4) 50 µL sample was taken from the sample tube at 0, 2 min, 5 min, 10 min, 30 min, and 60 min, respectively, into the stop tube, 50 µL of ice-cold 7% perchloric acid was added, and shaken to stop the reaction; • 5) Sample was centrifuged at 13000 r/min for 10 min, 75 µL supernatant was aspirated, 60 µL1.25% ammonia water was added and mixed well. After filtered with […] microporous membrane, 20 µL sample was taken for LC-MS/MS analysis.

[2] = Plasma drug concentrations and pharmacokinetics after a single subcutaneous injection of SP peptide or SIPI-D00 peptide in SD rats; type: in vivo
Method: Route: Single back subcutaneous injection;
Dosage of the drug: SP peptide and SIPI-D00 peptide were prepared into 3.33 mg/mL solution with normal saline, the dosage of SP peptide by back subcutaneous injection was 10 mg/kg body weight, and the dosage of SIPI-D00 peptide by back subcutaneous injection was 5 mg/kg body weight. […]

[3] = system: OVA-induced asthma model mice; experiment: Lung pathology (H&E) of OVA-induced asthma model mice; type: in vivo, BALB/c mice; details: after 28 days
Method: (§1) The first batch: mice were divided into groups, 10 mice in each group, namely: blank control group (normal saline), model group (OVA, 20 ug/mouse), SP peptide group (administered dose of 175 µg/kg body weight/day, 350 µg/kg body weight/day, respectively), SIPI-D00 peptide group (administered dose of 175 µg/kg body weight/day, 350 µg/kg body weight/day), and dexamethasone group (administered dose of 2 mg/kg body weight/day).
(§2) Mice in the model group, SP peptide group, SIPI-D00 peptide group and dexamethasone group were sensitized by intraperitoneal injection of OVA (20 µg OVA/mice) on day 0, 7, and 14, and challenged by aerosol administration of OVA (once a day for 5 consecutive days) on day 21-25 to construct asthmatic model animals. Mice in the model group were given normal saline on days 21-28; mice in different doses of SP peptide group and SIPI-D00 peptide group were injected subcutaneously with different doses of SP and SIPI-D00 on days 19-28; mice in dexamethasone group were injected intraperitoneally with 2 mg/kg/day dexamethasone on days 21-28. At the same time, 10 mice in the blank control group were fed normally from day 0 to day 28 without any treatment, and were given normal saline as a blank control.
After 28 days, the mouse lung tissue was taken out, fixed in 4% formaldehyde, embedded in paraffin, sectioned, and stained with H&E for pathological observation.
as §1, with “ug/mice), and” for “ug/mouse),”, “SIPI-G5” for “SIPI-D00”, “weight/day),” for “weight/day), and”
(§3) At the same time, 10 mice in the blank control group were fed normally from day 0 to day 28 without any treatment, and were given normal saline as a blank control.

serum IgE = experiment: Serum IgE level in OVA-induced allergic asthma model mice; type: in vivo, BALB/c mice
Method: as §1
OVA for sensitization was dissolved in sterile PBS solution at a final concentration of 0.2 mg/mL, then an equal volume of aluminum hydroxide adjuvant was added. After shaking for 30 minutes, each mouse was intraperitoneally injected with 0.2 mL (20 µg OVA per mouse).
2% OVA solution was prepared in sterile PBS. The 2% OVA was nebulized with a nebulizer, and the mice were placed in the nebulizer inhalation box for 30 minutes per day.
According to the dosage, SP peptide and SIPI-D00 were dissolved in normal saline respectively, and administered by subcutaneous administration on the back according to the body weight of the animals.
as §2
After 28 days, blood was collected from the inner canthus of the mouse, and the serum was collected, and the IgE level in the serum was measured with an ELISA kit. […]
as §3

[4] = system: ConA-stimulated mouse splenocytes; experiment: Secretion of IL-4 from mouse splenocytes stimulated by ConA (ELISA); type: cell-based, BALB/C mice; details: for IL-4 levels of polypeptides: ConA 5 µg/mL, 24 h
Method: (§4) Three BALB/C mice were sacrificed by cervical dislocation after anesthesia. Then mice were immersed in 75% ethanol for 5 minutes. After dissection and spleen extraction, spleen lymphocytes were prepared. […] Different concentrations of test substances were added to each well, and duplicate wells were set for each concentration, and the final concentration of ConA was 5 µg/mL. The plate was incubated in a 37° C. 5% CO2 incubator for 24 h, the drug-containing cell suspension was aspirated from each well, then centrifuged at 200 g for 15 min at 4° C. The supernatant was taken, and mouse IL-4 Elisa kit was used to detect IL- 4 content.
as §4, with “each concentration was” for “duplicate wells were”, “up as triple wells,” for “for each concentration,”, “kit (mouse IL-4 Elisa kit)” for “kit”

[5] = system: OVA-induced asthma model mice; experiment: Lung function (inspiratory airway resistance, lung compliance) in OVA-induced allergic asthma model mice; type: in vivo, BALB/c mice; details: for Inspiratory airway resistance / Lung compliance: 2 mg/kg/day i.p., n=10
Method: The second batch: mice were divided into groups, 10 mice in each group, namely: blank control group (normal saline), model group (OVA, dose of 20 ug/mouse), SP peptide group (administered dose of 87.5 µg/kg body weight/ day, 175 µg/kg body weight/day, 350 µg/kg body weight/day, respectively), SIPI-D00 peptide group (administered dose of 87.5 µg/kg body weight/day, 175 µg/kg body weight/day, 350 µg/kg body weight/day), and Dexamethasone group (administered dose of 2 mg/kg body weight/day).
as §2
On the 28th day, the mice were anesthetized with tracheal intubation and jugular vein intubation, and the inspiratory airway resistance and lung compliance were measured in each group of animals. Each animal was given fold increasing amounts of methacholine via the jugular vein: 0.025 mg/kg, 0.05 mg/kg, 0.1 mg/kg, 0.2 mg/kg. After each dose was given, the lung compliance curve was recorded continuously for 5 minutes, and the inspiratory airway resistance and lung compliance were calculated. […]
as §3

CCCC1O[C@@H]2C[C@H]3[C@@H]4CCC5=CC(=O)C=C[C@]5(C)[C@H]4[C@@H](O)C[C@]3(C)[C@]2(C(=O)CO)O1 (stereo partly shown) [Budesonide, budesonide]
200 ms pulmonary ventilation (COPD model rats): 77.17 ± 11.20 mL | Percentage of 200 ms pulmonary ventilation (%) (COPD model rats): 465.8±77.8 %

CC(=O)N[C@H]1C(O[C@H](C)[C@H](NC(=O)[C@H](CCC(N)=O)NC(=O)CN)C(=O)N[C@@H](Cc2ccc(O)cc2)C(=O)N[C@H](C(=O)N[C@@H](CO)C(=O)NCC(=O)O)[C@@H](C)O)O[C@H](CO)[C@@H](O)[C@@H]1O (stereo partly shown) [SIPI-G6, GQT(Glc)YTSG] (H-GQT(X1)YTSG-OH)
stability in whole blood [1]: significantly higher than that of SP peptide | recovery ([1]; incubation time 0 min): 100% | recovery ([1]; incubation time 2 min): 86.1 ± 1.8% | recovery ([1]; incubation time 5 min): 81.3 ± 8.3% | recovery ([1]; incubation time 10 min): 73.4 ± 2.6% | recovery ([1]; incubation time 30 min): 59.7 ± 8.8% | recovery ([1]; incubation time 60 min): 51.1 ± 4.9%

CC(=O)N[C@H]1C(OC[C@H](NC(=O)[C@@H](NC(=O)[C@H](Cc2ccc(O)cc2)NC(=O)[C@@H](NC(=O)[C@H](CCC(N)=O)NC(=O)CN)[C@@H](C)OC2O[C@H](CO)[C@@H](O)[C@H](O)[C@H]2NC(C)=O)[C@@H](C)OC2O[C@H](CO)[C@@H](O)[C@H](O)[C@H]2NC(C)=O)C(=O)NCC(=O)O)O[C@H](CO)[C@@H](O)[C@@H]1O (stereo partly shown) [SIPI-G4, GQT(Glc)YT(Glc)S(Glc)G] (H-GQT(X1)YT(X1)S(X1)G-OH)
stability in whole blood [1]: significantly higher than that of SP peptide | recovery ([1]; incubation time 0 min): 100% | recovery ([1]; incubation time 2 min): 94.6 ± 8.5% | recovery ([1]; incubation time 5 min): 87.3 ± 5.6% | recovery ([1]; incubation time 10 min): 87.2 ± 5.9% | recovery ([1]; incubation time 30 min): 77.7 ± 8.1% | recovery ([1]; incubation time 60 min): 77.1 ± 2.3%

CC(=O)N[C@H]1C(O[C@H](C)[C@H](NC(=O)[C@H](Cc2ccc(O)cc2)NC(=O)[C@@H](NC(=O)[C@H](CCC(N)=O)NC(=O)CN)[C@@H](C)OC2O[C@H](CO)[C@@H](O)[C@H](O)[C@H]2NC(C)=O)C(=O)N[C@@H](CO)C(=O)NCC(=O)O)O[C@H](CO)[C@@H](O)[C@@H]1O (stereo partly shown) [SIPI-G8, GQT(Glc)YT(Glc)SG] (H-GQT(X1)YT(X1)SG-OH)
stability in whole blood [1]: significantly higher than that of SP peptide | recovery ([1]; incubation time 0 min): 100% | recovery ([1]; incubation time 2 min): 83.6 ± 8.1% | recovery ([1]; incubation time 5 min): 83.2 ± 6.1% | recovery ([1]; incubation time 10 min): 80.7 ± 2.3% | recovery ([1]; incubation time 30 min): 71.2 ± 6.3% | recovery ([1]; incubation time 60 min): 58.6 ± 4.8%

H-GQTYTSG-OH [SP, GQTYTSG, reference compound]
Plasma concentration ([2]; SP peptide 10 mg/kg s.c., SD rats, time 0 min, parallels 1-4): 0 ng/mL | level at 0.5 min ([2]; male, SD, rat, plasma, sc, 10 mg/kg, SP peptide 10 mg/kg s.c., SD rats, time 0.5 min, parallels 1-4, read-out: Plasma concentration): 74.2 ng/mL | AUC(0-inf) ([2]; rat, in vivo, sc, 10 mg/kg): 11.9 ng·h/mL | AUC(0-t) ([2]; rat, in vivo, sc, 10 mg/kg): 11.9 ng·h/mL | Cmax ([2]; rat, in vivo, sc, 10 mg/kg): 210 ± 21.6 ng/mL | half-life ([2]; rat, in vivo, sc, 10 mg/kg): 8.65 ± 1.79 min | recovery ([1]; incubation time 0 min): 100% | recovery ([1]; incubation time 2 min): 64.1 ± 7.6% | recovery ([1]; incubation time 5 min): 41.3 ± 6.8% | recovery ([1]; incubation time 10 min): 28.5 ± 0.9% | recovery ([1]; incubation time 30 min): 4.93 ± 0.7% | recovery ([1]; incubation time 60 min): 1.67 ± 0.5% | lung pathology, H&E ([3]; high-dose group (350 µg/kg body weight/day)): some inflammatory cells are found in the airway mucosa | lung pathology, H&E ([3]; low-dose group (175 µg/kg body weight/day)): some inflammatory cells are found in the airway mucosa | Serum IgE level (OD450) (serum IgE; 175 ug/kg/day subcutaneous, days 19-28, n=10): 0.634 ± 0.078 OD450 and 0.634 + OD450 | Serum IgE level (OD450) (serum IgE; 350 ug/kg/day subcutaneous, days 19-28, n=10): 0.595 ± 0.041 OD450 and 0.595 + OD450 | Inhibitory rate of polypeptide on IL-4 secretion ([4]; peptide concentration 1 µg/mL): 33.90% | IL-4 levels of polypeptides ([4]; peptide concentration 1 µg/mL): 14.28 ± 0.51 pg/mL | Inhibitory rate of polypeptide on IL-4 secretion ([4]; peptide concentration 3 µg/mL): 42.51% | IL-4 levels of polypeptides ([4]; peptide concentration 3 µg/mL): 12.42 ± 0.34 pg/mL | Inhibitory rate of polypeptide on IL-4 secretion ([4]; peptide concentration 10 µg/mL): 50.21% | IL-4 levels of polypeptides ([4]; peptide concentration 10 µg/mL): 10.76 ± 2.55 pg/mL | Inhibitory rate of polypeptide on IL-4 secretion ([4]; peptide concentration 30 µg/mL): 52.15% | IL-4 levels of polypeptides ([4]; peptide concentration 30 µg/mL): 10.34 ± 0.27 pg/mL

C[C@@H]1C[C@H]2[C@@H]3CCC4=CC(=O)C=C[C@]4(C)[C@@]3(F)[C@@H](O)C[C@]2(C)[C@@]1(O)C(=O)COP(=O)([O-])[O-].[Na+].[Na+] [Dexamethasone, dexamethasone sodium phosphate, reference compound]
lung pathology, H&E ([3]; positive control group (dexamethasone 2 mg/kg body weight/day)): a small amount of inflammatory cell infiltration in the lungs, but the alveolar cavity is seriously damaged | Inspiratory airway resistance ([5]; methacholine 0 mg/kg): 1.00±0.00 | Lung compliance ([5]; methacholine 0 mg/kg): 1.00±0.00 | Inspiratory airway resistance ([5]; methacholine 0.025 mg/kg): 1.06±0.08 | Lung compliance ([5]; methacholine 0.025 mg/kg): 0.97±0.10 | Inspiratory airway resistance ([5]; methacholine 0.05 mg/kg): 1.15±0.14 | Lung compliance ([5]; methacholine 0.05 mg/kg): 0.89±0.14 | Inspiratory airway resistance ([5]; methacholine 0.1 mg/kg): 1.20±0.21 | Lung compliance ([5]; methacholine 0.1 mg/kg): 0.87±0.22 | Inspiratory airway resistance ([5]; methacholine 0.2 mg/kg): 1.23±0.17 | Lung compliance ([5]; methacholine 0.2 mg/kg): 0.83±0.14 | inspiratory phase resistance (in words) ([5]; compared with the model group): significantly reduced | lung compliance (in words) ([5]; compared with the model group): significantly increased | Serum IgE level (OD450) (serum IgE; 2 mg/kg/day intraperitoneal, days 21-28, n=10): 0.285 ± 0.041 OD450
